The source of these data is ChEMBL document CHEMBL3352249, “Novel indolizine derivatives with unprecedented inhibitory activity on human farnesyltransferase” (Bioorg Med Chem Lett, 2014).

In general, inhibition refers to how much of the control response was suppressed. The term IC50 denotes the concentration at which inhibition is half-maximal.

Assay [1] concerns the target T1, Protein farnesyltransferase (Homo sapiens, UniProt P49354+P49356). As to the kind of experiment: Inhibition of human recombinant farnesyltransferase using Dansyl-GCVLS peptide as substrate at 100 uM after 15 mins by fluorescence assay.
Assay [2] concerns the target T1, Protein farnesyltransferase. As to the kind of experiment: Inhibition of human recombinant farnesyltransferase using Dansyl-GCVLS peptide as substrate after 15 mins by fluorescence assay.

As to `Cc1ccn2c(C(=O)c3ccc(Br)cc3)cc(C(=O)O)c2c1`, the inhibition in assay [1] was found to be 0%.

`C#CCNC(=O)c1cc(C(=O)c2ccccc2)n2c(C)cccc12`: in assay [2], the IC50 turned out to be 57.8 µM. The inhibition in assay [1] worked out at 74%.

`C#CCCOC(=O)c1cc(C(=O)c2ccccc2)n2ccc(C)cc12`: the inhibition in assay [1] turned out to be 0%.

Regarding `C#CCCOC(=O)c1cc(C(=O)c2ccc(Br)cc2)n2ccc(C)cc12`, the inhibition in assay [1] was found to be 68%.

As to `C#CCNC(=O)c1cc(C(=O)c2ccc(Cl)cc2)n2ccccc12`, the half-inhibitory concentration (IC50) in assay [2] was found to be 5.9 µM. Also, the inhibition in assay [1] was found to be 94%.

With `C#CCOC(=O)c1cc(C(=O)c2ccccc2)n2c(C)cccc12`, the IC50 in assay [2] is 20.8 µM. Besides, the inhibition in assay [1] is 93%.

Consider `C#CCCOC(=O)c1cc(C(=O)c2ccccc2)n2ccccc12`, for which the inhibition in assay [1] came to 61%.

For the compound `Cc1ccn2c(C(=O)c3ccccc3)cc(C(=O)O)c2c1`, the IC50 in assay [2] worked out at 72.3 µM. Besides, the inhibition in assay [1] stood at 100%.

With `C#CCOC(=O)c1cc(C(=O)c2ccc(Cl)cc2)n2c(C)cccc12`, in assay [2], the IC50 stood at 2.6 µM. The inhibition in assay [1] was found to be 100%.

Take `C#CCCOC(=O)c1cc(C(=O)c2ccc(Cl)cc2)n2c(C)cccc12`: the IC50 in assay [2] is 20.7 µM. The inhibition in assay [1] stood at 97%.

Turning to `C#CCOC(=O)c1cc(C(=O)c2ccccc2)n2ccc(C)cc12`, the inhibition in assay [1] amounted to 72%.

Turning to `Cc1cccc2c(C(=O)O)cc(C(=O)c3ccccc3)n12`, the inhibition in assay [1] was determined as 48%.

With `Cc1cccc2c(C(=O)O)cc(C(=O)c3ccc(Br)cc3)n12`, the IC50 in assay [2] is 14.8 µM. Moreover, the inhibition in assay [1] is 91%.

For the compound `Cc1cccc2c(C(=O)O)cc(C(=O)c3ccc(Cl)cc3)n12`, the IC50 in assay [2] was 32.2 µM. Also, the inhibition in assay [1] was 79%.

As to `C#CCCOC(=O)c1cc(C(=O)c2ccc(Cl)cc2)n2ccc(C)cc12`, the inhibition in assay [1] is 0%.

For `C#CCCOC(=O)c1cc(C(=O)c2ccc(Br)cc2)n2c(C)cccc12`, in assay [2], the IC50 was 2.2 µM. In addition, the inhibition in assay [1] is 100%.

On to `C#CCNC(=O)c1cc(C(=O)c2ccccc2)n2ccccc12`, for which the IC50 in assay [2] is 22.1 µM. Also, the inhibition in assay [1] amounted to 100%.

On to `C#CCCOC(=O)c1cc(C(=O)c2ccc(Cl)cc2)n2ccccc12`, for which the inhibition in assay [1] worked out at 0%.

In the case of `C#CCNC(=O)c1cc(C(=O)c2ccc(Br)cc2)n2ccccc12`, the IC50 in assay [2] is 4.4 µM. Further, in assay [1], the inhibition came out at 100%.

Consider `C#CCOC(=O)c1cc(C(=O)c2ccc(Br)cc2)n2c(C)cccc12`, for which the IC50 in assay [2] was 1.3 µM. The inhibition in assay [1] turned out to be 100%.

As to `O=C(O)c1cc(C(=O)c2ccc(Cl)cc2)n2ccccc12`, in assay [2], the IC50 was determined as 20.7 µM. In addition, the inhibition in assay [1] came out at 100%.

`O=C(O)c1cc(C(=O)c2ccccc2)n2ccccc12`: in assay [2], the IC50 was 19.7 µM. For the same compound, in assay [1], the inhibition came to 100%.

With `C#CCNC(=O)c1cc(C(=O)c2ccc(Br)cc2)n2c(C)cccc12`, the IC50 in assay [2] amounted to 11.4 µM. In addition, the inhibition in assay [1] is 90%.

For `C#CCCOC(=O)c1cc(C(=O)c2ccccc2)n2c(C)cccc12`, the IC50 in assay [2] is 7.3 µM. In assay [1], the inhibition is 94%.

For `C#CCNC(=O)c1cc(C(=O)c2ccc(Cl)cc2)n2c(C)cccc12`, the IC50 in assay [2] is 14.9 µM. In addition, in assay [1], the inhibition came to 97%.

For `C#CCOC(=O)c1cc(C(=O)c2ccc(Cl)cc2)n2ccccc12`, the inhibition in assay [1] was 54%.

Regarding `CCCCCCCCCCCCCC/C(C(=O)O)=C(\C)C(=O)O` [CHAETOMELLIC ACID A], the IC50 in assay [2] was found to be 0.18 µM. Moreover, the inhibition in assay [1] was found to be 100%.

Consider `C#CCOC(=O)c1cc(C(=O)c2ccc(Cl)cc2)n2ccc(C)cc12`, for which the inhibition in assay [1] turned out to be 0%.

As to `C#CCOC(=O)c1cc(C(=O)c2ccccc2)n2ccccc12`, the IC50 in assay [2] amounted to 14.4 µM. Moreover, the inhibition in assay [1] stood at 100%.

`Cc1ccn2c(C(=O)c3ccc(Cl)cc3)cc(C(=O)O)c2c1`: the inhibition in assay [1] came out at 0%.

With `O=C(O)c1cc(C(=O)c2ccc(Br)cc2)n2ccccc12`, in assay [2], the IC50 amounted to 19.4 µM. The inhibition in assay [1] was 100%.

Take `C#CCCOC(=O)c1cc(C(=O)c2ccc(Br)cc2)n2ccccc12`: the inhibition in assay [1] was 0%.

As to `C#CCNC(=O)c1cc(C(=O)c2ccccc2)n2ccc(C)cc12`, the IC50 in assay [2] is 15.3 µM. The inhibition in assay [1] stood at 100%.
